Measured values from US7576224B2, “Insecticidal (dihalopropenyl) phenylalkyl substituted dihydrobenzofuran and dihydrobenzopyran derivatives” (FMC Corporation, priority 2003, dated 2009).

Tests used:
[1] = test system: tobacco budworm (Heliothis virescens [Fabricius]); assay: Surface-treated diet test against tobacco budworm; format: in vivo; conditions: 0.25 millimolar on the surface of the diet, second instar larvae, five-day exposure; for Percent Growth Inhibition: insect weight relative to untreated controls
From the text: Surface-Treated Diet Test Against Tobacco Budworm
The test compounds of formula I are identified by numbers that correspond to those in Table 1.

[2] = test system: tobacco budworm (Heliothis virescens [Fabricius]); assay: Foliar treated test against tobacco budworm (chick pea plants); format: in vivo; conditions: rate of application 30 ppm; foliage; 96 hour exposure
From the text: (§1) Foliar Treated Test Against Tobacco Budworm and Cabbage Looper
(§2) Nine-to-ten day-old chick pea plants (Cicer arietinum) were sprayed at 15 psi to runoff on both upper and lower leaf surfaces with solutions of test compound to provide application rates as high as 1000 ppm of test chemical. The solvent used to prepare the solutions of test compound was 10% acetone or methanol (v/v) and 0.1% of the surfactant octylphenoxypolyethoxyethanol in distilled water. Four replicates, each containing one chick pea plant, for each rate of application of test compound were sprayed. The treated plants were transferred to a hood where they were kept until the spray had dried.
(§3) The four chick pea plants for each replicate treated with test compound as described above were removed from their pots by cutting the stems just above the soil line. The excised leaves and stems from the four plants in each replicate were placed in individual 237 mL (8-ounce) paper cups, which contained a moistened filter paper. Five second-instar (7 days old) tobacco budworms or cabbage loopers (7 days old) were counted into each cup, taking care not to cause injury. An opaque plastic lid was placed on each cup, which was then held in a growth chamber for a 96 hour exposure period at 25° C., 50% relative humidity and photo-period of 12 hours light and 12 hours dark. At the end of the 96 hour exposure period the cups were opened, and the numbers of dead, moribund, and live insects were counted. Using the insect counts, the efficacy of the test compound was expressed in percent control. Percent control is derived from the total number of dead insects (TD) plus the total number of moribund insects (TM) as compared to the total number of insects (TI) in the test:
(§4) The condition of the test plants was also observed for phytotoxicity and for reduction of feeding damage as compared to an untreated control.

[3] = Photostability (rate of photolysis, thin film on glass, Suntest CPS illuminator); format: physicochemical; conditions: for Percent of Compound 12 Half-life: relative photolysis half-life compared to compound 12; for Photolysis Half-life: thin film on glass coverslips, filtered xenon lamp, about 25° C.
Procedure: These tests were conducted in the following manner:
For each compound tested, three glass microscope coverslips (12 mm in diameter) for each illumination period (1, 3, 6, 12, and 24 hours) were spotted with 10 microliters of a one mg/mL acetonitrile or methanol solution of test compound. Three coverslips were also spotted with test compound and were not illuminated. The material on these non-illuminated coverslips was analyzed at the end of the experiment as described below to determine the test compound stability on glass. The solvents in each 10 microliter solution on each coverslip were allowed to evaporate leaving a thin film of test compound on each coverslip. Three of the coverslips representing the zero hour illumination period were then placed in a 20 mL scintillation vial. In the vial was placed one mL of acetonitrile, which extracted the test chemical from the coverslip. The solution was then transferred to a two-dram vial for analysis by HPLC. The average HPLC peak area generated by this sample defined the initial level of test compound. The remaining coverslips were then placed in the water-cooled chamber of the exposure platform of a Suntest CPS illuminator (Heraeus Instruments GmbH; Bereich Original Hanau, Hersaeusstrasse R-14, Postfach 1563, D-6450 Hanau 1). The exposure platform was covered with a quartz plate and maintained at about 25° C. for the duration of the test. The Suntest CPS illuminator employs a filtered xenon lamp, which provides illumination of a similar spectrum and intensity as sunlight. Three coverslips for each test compound were removed from the illuminator at 1, 3, 6, 12, and 24 hours of continuous illumination. Approximately eight hours of illumination is equivalent to one summer day at 40° N latitude. The three coverslips from each of the illumination periods were treated as described above and analyzed by HPLC. The average HPLC peak area from each of these illumination periods represents a diminished amount of test compound when compared to the initial level of test compound as determined from the zero hour illumination sample. The percents of test compound remaining from each of these illumination periods were used to generate a degradation curve from which a half-life in hours was determined for each test compound.

[4] = test system: cabbage looper (Trichoplusia ni [Hubner]); assay: Foliar treated test against cabbage looper (chick pea plants); format: in vivo; conditions: rate of application 30 ppm; foliage; 96 hour exposure
From the text: as §1, §2, §3, §4

[5] = test system: Diamondback Moth (Plutella xylostella); assay: Foliar treated test against diamondback moth (cabbage leaf discs); format: in vivo; conditions: rate of application 30 ppm; foliage; 96 hour exposure
Procedure: Four replicates, each containing one cabbage leaf disc, for each rate of application of test compound were dipped. The four cabbage leaf discs for each replicate treated were immersed for five seconds in the solution of test compound as described above. Each discs was then placed in individual 50 mm Petrie dishes containing a filter paper 42.5 mm in diameter that had been moistened with 100 μL of water. The uncovered Petrie dishes were then set aside until the leaf discs were dry. After this time, two third-instar diamondback moth larvae (10-14 days old) were carefully placed on each leaf disc. A tight-fitting lid was then placed on each Petrie dish, which was which was then held in a growth chamber for a 96 hour exposure period at 25° C., 50% relative humidity and photo-period of 12 hours light and 12 hours dark. At the end of the 96 hour exposure period the Petrie dishes were uncovered, and the numbers of dead, moribund, and live insects were counted. Using the insect counts, the efficacy of the test compound was expressed in percent control by methods set forth above in tests against the tobacco budworm and cabbage looper.

cabbage looper = assay: Whole plant foliar treated test against cabbage looper; format: in vivo, Trichoplusia ni; conditions: cabbage plants sprayed, 96 hour exposure; for Percent Control at 25 g: rate of application 25 g; for Percent Control at 50 g: rate of application 50 g; for Percent Control at 100 g: rate of application 100 g
Procedure: Whole Plant Foliar Treated Test Against Cabbage Looper
For each rate of application of test compound, a 15 mL aliquot of test solution was prepared. Sufficient test compound was dissolved in 1.5 mL of acetone to provide an application rate as high as 1000 grams/Ha. Each solution was then added to 13.5 mL of water containing 300 ppm of a surfactant. There were four replicates for each rate of application of test compound, and all tests included a known chemical standard as well as a standard of water and surfactant and untreated checks.
A maximum of 14 appropriately sized cabbage plants for each rate of application and replicate were arranged in a 28 pot plastic flat and sprayed with the 15 mL sample of test compound using an traveling boom sprayer equipped with a cone spray tip at a rate of 30 gallons/acre under a pressure of 40-44 psi. The untreated checks were sprayed first, followed by the test compounds and standards, all in order of lowest to highest rates of application. Once the spraying was complete, the test plants were allowed to air-dry on the conveyor on which they were sprayed.
For each rate of application and replication, sufficient Petrie dishes, 50×9 mm in size, were lined with filter paper disks and each were moistened with 0.5 mL of distilled water. From each replicate cabbage plant at least three 2.5 cm disks were cut Each leaf disk was then placed in an individual Petrie dishes with the adaxial side of the leaf facing up. Following placement of the leaf disks, two neonate cabbage looper larvae were placed on each disk. Upon completion of infestation each Petrie dish was covered and held in a growth chamber for a 96 hour exposure period at 25° C., 40%-60% relative humidity and photo-period of 12 hours light and 12 hours dark. At the end of the 96 hour exposure period the Petrie dishes were opened, and the numbers of dead, moribund, and live insects were counted. Using the insect counts, the efficacy of the test compound was expressed in percent control. Percent control is derived from the total number of dead insects (TD) plus the total number of moribund insects (TM) as compared to the total number of insects (TI) in the test:
[formula] The condition of the test plants was also observed for phytotoxicity and for reduction of feeding damage as compared to an untreated control.

| Percent of Compound 12 Half-life [3] [%] | Photolysis Half-life [3] [h] | Structure (SMILES) | Percent Mortality [1] [%] | Percent Growth Inhibition [1] [%] | Percent Control TBW (Tobacco Budworm) [2] [%] | Percent Control CL (Cabbage Looper) [4] [%] | Percent Control DBM (Diamondback Moth) [5] [%] | Percent Control at 25 g (cabbage looper) [%] | Percent Control at 50 g (cabbage looper) [%] | Percent Control at 100 g (cabbage looper) [%] |
| --- | --- | --- | --- | --- | --- | --- | --- | --- | --- | --- |
|  |  | CC1(C)Cc2cc(C(F)(F)F)cc(OCCCCOc3c(Cl)cc(OCC=C(Cl)Cl)cc3Cl)c2O1 [Compound 20, 5-(3,3-dichloroprop-2-enyloxy)-2-{4-[2,2-dimethyl-5-(trifluoromethyl)(2,3-dihydrobenzo[2,3-b]furan-7-yloxy)]-butoxy}1,3-dichlorobenzene] | 100 | 100 |  |  |  |  |  |  |
|  |  | CC1(C)Cc2cccc(OC(=O)NCCCOc3c(Cl)cc(OCC=C(Cl)Cl)cc3Cl)c2O1 [Compound 53, N-{3-[4-(3,3-dichloroprop-2-enyloxy)-2,6-dichlorophenoxy]propyl}(2,2-dimethyl(2,3-dihydrobenzo[2,3-b]furan-7-yloxy))-carboxamide] | 100 | 100 |  |  |  |  |  |  |
| 21 | 4 | ClC(Cl)=CCOc1cc(Cl)c(OCCCCCc2cc3ccccc3o2)c(Cl)c1 [Y] |  |  | 5 |  |  |  |  |  |
| 21 | 4 | ClC(Cl)=CCOc1cc(Cl)c(OCCCCOc2cccc3occc23)c(Cl)c1 [Z] |  |  | 60 | 20 | 60 |  |  |  |
| 32 | 6 | Cc1cc2cccc(OCCCCOc3c(Cl)cc(OCC=C(Cl)Cl)cc3Cl)c2o1 [X] |  |  | 96 | 50 | 85 | 8 | 8 | 13 |

| Structure (SMILES) | Percent of Compound 12 Half-life [3] [%] | Photolysis Half-life [3] [h] | Percent Mortality [1] [%] | Percent Growth Inhibition [1] [%] | Percent Control TBW (Tobacco Budworm) [2] [%] | Percent Control CL (Cabbage Looper) [4] [%] | Percent Control DBM (Diamondback Moth) [5] [%] | Percent Control at 25 g (cabbage looper) [%] | Percent Control at 50 g (cabbage looper) [%] | Percent Control at 100 g (cabbage looper) [%] |
| --- | --- | --- | --- | --- | --- | --- | --- | --- | --- | --- |
| ClC(Cl)=CCOc1cc(Cl)c(OCCCCOc2cccc3ccoc23)c(Cl)c1 [Compound W] | 58 | 11 |  |  | 62 | 20 | 60 |  |  |  |
| CC1(C)Cc2cccc(OCCCCOc3c(Cl)cc(OCC=C(Cl)Cl)cc3Cl)c2O1 [Compound 12, 5-(3,3-Dichloroprop-2-enyloxy)-2-[4-(2,2-dimethyl(2,3-dihydrobenzo[2,3-b]furan-7-yloxy))butoxy]-1,3-dichlorobenzene] | 100 | 19 | 100 | 100 | 88 | 96 | 91 | 88 | 100 | 100 |
